{"source": "patent US20110166221A1", "about": "“USE OF DRONEDARONE FOR THE PREPARATION OF A MEDICAMENT FOR USE IN THE PREVENTION OF CARDIOVERSION” (SANOFI-AVENTIS, priority 2008, published 2011)", "system": "patients with a history of atrial fibrillation or atrial flutter", "assay": "prospective, multinational, double-blind, randomized, multi-center, placebo-controlled, parallel group trial for the prevention of cardioversion", "type": "in vivo, human", "description": "Efficacy of dronedarone and its pharmaceutically acceptable salts versus placebo for the prevention of cardioversion was provided via dronedarone hydrochloride during a prospective, multinational, double-blind, randomized, multi-center, placebo-controlled, parallel group trial.\nPatients must have a history of atrial fibrillation or atrial flutter and/or may be in normal sinus rhythm or in atrial fibrillation or flutter at the time of recruitment.\nRecruitment of patients was conducted taking into account the following inclusion criteria:\n• 1) One of the following risk factors had to be present: • age equal to or greater than 70 years, • hypertension (taking antihypertensives of at least two different classes), • diabetes, • history of cerebral stroke (transient ischemic event or completed cerebral stroke) or of systemic embolism, • left atrial diameter greater than or equal to 50 mm measured by echocardiography, • left ventricular ejection fraction less than 40%, measured by two-dimensional echography; • or • age equal to or above 70, or even above 75, possibly combined with at least one of the risk factors below: • hypertension (taking antihypertensives of at least two different classes), • diabetes, • history of cerebral stroke (transient ischemic event or completed cerebral stroke) or of systemic embolism, • left atrial diameter greater than or equal to 50 mm measured by echocardiography, • left ventricular ejection fraction less than 40%, measured by two-dimensional echography; • 2) availability of one electrocardiogram within the last six months, showing that the patients was or is in atrial fibrillation/flutter, • 3) availability of one electrocardiogram within the last six months, showing that the patients was or is in sinus rhythm.\nStudy drug treatment units (placebo or dronedarone hydrochloride corresponding to 400 mg of base) were such that each patient took one tablet in the morning during or shortly after breakfast and one tablet in the evening during or shortly after dinner.\nThe treatment duration depended on the time of recruitment of each patient in the trial and could be comprised from 12 months to 30 months.\nResults were calculated using non-parametric Kaplan-Meier estimate.\nCox's proportional hazard model was used to estimate the hazard ratio also called relative risk.\nRelative risk (RR) is the ratio between the risk of having a cardioversion for patients treated with dronedarone and the risk of having a cardioversion for patients treated with placebo.\nPercentage of decrease of an event is calculated as follow: […]", "note": "Where a name gives a salt, the structure may show the parent alone.", "data": [{"smiles": "CCCCc1oc2ccc(NS(C)(=O)=O)cc2c1C(=O)c1ccc(OCCCN(CCCC)CCCC)cc1", "note": "[dronedarone hydrochloride, 2-n-butyl-3-[4-(3-di-n-butylaminopropoxy)benzoyl]-5-methylsulfonamido-benzofuran]", "values": [{"measurement": "events (cardioversion) registered", "setting": "2301 of 4628 patients treated, 400 mg of base twice a day with meals, 12 to 30 months, placebo group 481 events", "result": 339}, {"measurement": "Calculated relative risk (hazard ratio) of having a cardioversion versus placebo", "setting": "Cox's proportional hazard model, 400 mg of base twice a day, 12 to 30 months, p<0.001", "result": 0.68}, {"measurement": "time course of effect, Kaplan Meier cumulative incidence from randomization to first cardioversion (FIG. 1)", "setting": "on-study period 12-30 months", "result": "occurred early and increased over time"}, {"measurement": "decrease of electrical cardioversion", "setting": "x=1-RR versus placebo, p<0.001", "result": 32, "unit": "%"}]}]}
